Experimental data taken from ChEMBL document CHEMBL4376829, “Discovery and biological evaluation of vinylsulfonamide derivatives as highly potent, covalent TEAD autopalmitoylation inhibitors” (Eur J Med Chem, 2019).
The source made the active and inactive calls. The rule behind the calls is not given here.

Legend:
[1] = target: Ribosomal protein S6 kinase alpha-3 (Homo sapiens) (UniProt P51812); assay: Inhibition of full length recombinant human Rsk2 (2 to end residues) at 10 uM using KKKNRTLSVA as substrate after 40 mins in presence of [gamma33P]ATP by scintillation counting method relative to control
[2] = target: Tyrosine-protein kinase Yes (Homo sapiens) (UniProt P07947); assay: Inhibition of recombinant full-length human Yes at 10 uM using poly(Glu, Tyr) 4:1 as substrate measured after 40 mins in presence of [gamma33P]ATP by scintillation counting method relative to control
[3] = target: Dual specificity mitogen-activated protein kinase kinase 2 (Homo sapiens) (UniProt P36507); assay: Inhibition of recombinant full-length human MEK2 at 10 uM using MBP as substrate measured after 40 mins in presence of [gamma33P]ATP by scintillation counting method relative to control
[4] = target: Serine/threonine-protein kinase Nek1 (Homo sapiens) (UniProt Q96PY6); assay: Inhibition of recombinant human NEK1 (1 to 505 residues) at 10 uM using RLGRDKYKTLRQIRQ as substrate measured after 40 mins in presence of [gamma33P]ATP by scintillation counting method relative to control
[5] = target: Platelet-derived growth factor receptor alpha (Homo sapiens) (UniProt P16234); assay: Inhibition of recombinant human PDGFRalpha (550 to end residues) at 10 uM using poly(Glu, Tyr) 4:1 as substrate measured after 40 mins in presence of [gamma33P]ATP by scintillation counting method relative to control
[6] = target: Leukocyte tyrosine kinase receptor (Homo sapiens) (UniProt P29376); assay: Inhibition of recombinant human LTK (450 to end residues) at 10 uM using GEEPLYWSFPAKKK as substrate measured after 40 mins in presence of [gamma33P]ATP by scintillation counting method relative to control
[7] = target: T1, Transcriptional enhancer factor TEF-3 (Homo sapiens, UniProt Q15561); assay: Inhibition of N-terminal His6 tagged human TEAD4-YBD (217 to 434 residues) expressed in Escherichia coli C43 (DE3) cells assessed as reduction in autopalmitoylation preincubated for 2 hrs followed by palmitoyl alkyne-coenzyme A addition and measured after 30 mins by immunoblot analysis
[8] = target: Serine/threonine-protein kinase B-raf (Homo sapiens) (UniProt P15056); assay: Inhibition of recombinant human BRAF (416 to end residues) at 10 uM using myelin basic protein as substrate after 40 mins in presence of [gamma33P]ATP by scintillation counting method relative to control
[9] = target: T1, Transcriptional enhancer factor TEF-3; assay: Binding affinity to Flag-tagged TEAD4 (unknown origin) expressed in HEK293T cells assessed as modification in Cys367 residue at 50 uM after 4 hrs by MS analysis; assay type: cell-based
[10] = species: Homo sapiens; assay: Inhibition of recombinant full-length human ATRIP/ATR M211T mutant at 10 uM using GST-cMyc-p53 as substrate measured after 40 mins by fluorescence assay relative to control
[11] = target: Serine/threonine-protein kinase D3 (Homo sapiens) (UniProt O94806); assay: Inhibition of full-length recombinant human PKD3 at 10 uM using KKLRRTLSVA as substrate after 40 mins by in presence of [gamma33P]ATP by scintillation counting method relative to control
[12] = target: Focal adhesion kinase 1 (Homo sapiens) (UniProt Q05397); assay: Inhibition of recombinant human FAK (411 to 686 residues) at 10 uM using EEEEYEEEEEEYYIIEEEEEEYEEEEEEYYEEEEEEKKKK as substrate measured after 40 mins in presence of [gamma33P]ATP by scintillation counting method relative to control
[13] = target: Tyrosine-protein kinase ZAP-70 (Homo sapiens) (UniProt P43403); assay: Inhibition of recombinant full-length human ZAP70 at 10 uM using poly(Glu, Tyr) 4:1 as substrate measured after 40 mins in presence of [gamma33P]ATP by scintillation counting method5 relative to control
[14] = target: T1, Transcriptional enhancer factor TEF-3; assay: Binding affinity to N-terminal His6 tagged human TEAD4-YBD (217 to 434 residues) expressed in Escherichia coli C43 (DE3) cells assessed as covalent modification at Cys367 residue by HPLC-MS/MS analysis
[15] = tested on: Phosphorylase b kinase gamma catalytic chain, liver/testis isoform (Homo sapiens), P15735 [F290L]; assay: Inhibition of recombinant human PhKgamma2 F290L mutant (1 to 301 residues) at 10 uM using KKLNRTLSFAEPG as substrate measured after 40 mins in presence of [gamma33P]ATP by scintillation counting method relative to control
[16] = target: Ribosomal protein S6 kinase alpha-4 (Homo sapiens) (UniProt O75676); assay: Inhibition of recombinant human MSK2 (2 to end residues) at 10 uM using GRPRTSSFAEGKK as substrate measured after 40 mins in presence of [gamma33P]ATP by scintillation counting method relative to control
[17] = target: T1, Transcriptional enhancer factor TEF-3; assay: Binding affinity to N-terminal His6 tagged human TEAD4-YBD (217 to 434 residues) expressed in Escherichia coli C43 (DE3) cells assessed as covalent modification by measuring change in protein mass by mass spectral analysis
[18] = target: Calcium/calmodulin-dependent protein kinase type IV (Homo sapiens) (UniProt Q16566); assay: Inhibition of full-length recombinant human Camk4 at 10 uM using calmodulin as substrate after 40 mins by in presence of [gamma33P]ATP by scintillation counting method relative to control
[19] = target: Bromodomain-containing protein 4 (Homo sapiens) (UniProt O60885); assay: Inhibition of human BRD4-BD1 at 10 uM relative to control
[20] = species: Homo sapiens; assay: Inhibition of recombinant human Plk4 S34T mutant (1 to 273 residues) at 10 uM using casein as substrate measured after 120 mins in presence of [gamma33P]ATP by scintillation counting method relative to control
[21] = target: CDK9/cyclin T1 (Homo sapiens) (UniProt O60563+P50750); assay: Inhibition of recombinant full length human CDK9/cyclinT1 at 10 uM using KTFCGTPEYLAPEVRREPRILSEEEQEMFRDFDYIADWC as substrate measured after 40 mins in presence of [gamma33P]ATP by scintillation counting method relative to control; assay type: protein-complex assay
[22] = target: Inhibitor of nuclear factor kappa-B kinase subunit alpha (Homo sapiens) (UniProt O15111); assay: Inhibition of full length recombinant human IKKalpha at 10 uM after 40 mins in presence of [gamma33P]ATP by scintillation counting method relative to control
[23] = species: Homo sapiens; assay: Inhibition of recombinant full-length human PI3K p120gamma R459Q mutant at 10 uM using phosphatidylinositol-4, 5-bisphosphate as substrate measured after 40 mins by fluorescence assay relative to control
[24] = target: Insulin-like growth factor 1 receptor (Homo sapiens) (UniProt P08069); assay: Inhibition of recombinant human IGF1R (959 to end residues) at 10 uM using KKKSPGEYVNIEFG as substrate after 40 mins in presence of [gamma33P]ATP by scintillation counting method relative to control

T1 sequence (Q15561 whole entry, the tested form may be a part): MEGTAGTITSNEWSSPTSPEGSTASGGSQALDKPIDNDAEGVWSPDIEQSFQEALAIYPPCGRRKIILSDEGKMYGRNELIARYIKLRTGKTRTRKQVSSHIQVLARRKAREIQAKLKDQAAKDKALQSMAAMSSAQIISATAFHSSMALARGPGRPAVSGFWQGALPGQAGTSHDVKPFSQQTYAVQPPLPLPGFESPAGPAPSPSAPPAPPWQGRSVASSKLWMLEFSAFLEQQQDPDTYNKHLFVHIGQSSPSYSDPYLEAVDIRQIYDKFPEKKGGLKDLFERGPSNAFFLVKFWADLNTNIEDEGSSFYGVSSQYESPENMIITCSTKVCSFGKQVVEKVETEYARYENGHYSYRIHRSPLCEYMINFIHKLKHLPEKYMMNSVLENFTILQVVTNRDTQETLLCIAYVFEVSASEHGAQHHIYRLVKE
Leukocyte tyrosine kinase receptor (Homo sapiens), sequence (P29376 whole entry, the tested form may be a part): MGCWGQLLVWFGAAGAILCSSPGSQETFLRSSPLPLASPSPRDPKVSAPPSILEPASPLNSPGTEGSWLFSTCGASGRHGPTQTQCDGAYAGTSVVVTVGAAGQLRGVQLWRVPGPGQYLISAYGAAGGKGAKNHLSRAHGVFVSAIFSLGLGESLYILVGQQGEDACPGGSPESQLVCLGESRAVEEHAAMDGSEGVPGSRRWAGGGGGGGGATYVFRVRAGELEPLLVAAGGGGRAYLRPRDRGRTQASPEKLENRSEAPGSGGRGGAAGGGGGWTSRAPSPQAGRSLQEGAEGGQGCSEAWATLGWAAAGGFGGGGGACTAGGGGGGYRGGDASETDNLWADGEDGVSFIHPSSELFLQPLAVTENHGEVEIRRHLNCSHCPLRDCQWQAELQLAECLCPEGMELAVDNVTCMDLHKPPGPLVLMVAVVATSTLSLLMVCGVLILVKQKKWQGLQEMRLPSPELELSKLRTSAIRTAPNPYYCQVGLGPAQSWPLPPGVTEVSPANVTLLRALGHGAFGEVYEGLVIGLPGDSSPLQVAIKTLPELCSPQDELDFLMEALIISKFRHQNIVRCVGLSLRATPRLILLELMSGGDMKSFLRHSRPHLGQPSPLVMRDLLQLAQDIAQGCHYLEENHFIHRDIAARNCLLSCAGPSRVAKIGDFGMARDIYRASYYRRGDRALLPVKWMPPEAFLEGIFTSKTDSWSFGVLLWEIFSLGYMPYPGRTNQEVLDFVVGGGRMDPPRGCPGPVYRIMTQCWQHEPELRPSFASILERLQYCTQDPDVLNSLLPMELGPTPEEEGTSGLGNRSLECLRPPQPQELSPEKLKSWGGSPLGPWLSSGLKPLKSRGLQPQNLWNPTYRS
Serine/threonine-protein kinase B-raf (Homo sapiens), sequence (P15056 whole entry): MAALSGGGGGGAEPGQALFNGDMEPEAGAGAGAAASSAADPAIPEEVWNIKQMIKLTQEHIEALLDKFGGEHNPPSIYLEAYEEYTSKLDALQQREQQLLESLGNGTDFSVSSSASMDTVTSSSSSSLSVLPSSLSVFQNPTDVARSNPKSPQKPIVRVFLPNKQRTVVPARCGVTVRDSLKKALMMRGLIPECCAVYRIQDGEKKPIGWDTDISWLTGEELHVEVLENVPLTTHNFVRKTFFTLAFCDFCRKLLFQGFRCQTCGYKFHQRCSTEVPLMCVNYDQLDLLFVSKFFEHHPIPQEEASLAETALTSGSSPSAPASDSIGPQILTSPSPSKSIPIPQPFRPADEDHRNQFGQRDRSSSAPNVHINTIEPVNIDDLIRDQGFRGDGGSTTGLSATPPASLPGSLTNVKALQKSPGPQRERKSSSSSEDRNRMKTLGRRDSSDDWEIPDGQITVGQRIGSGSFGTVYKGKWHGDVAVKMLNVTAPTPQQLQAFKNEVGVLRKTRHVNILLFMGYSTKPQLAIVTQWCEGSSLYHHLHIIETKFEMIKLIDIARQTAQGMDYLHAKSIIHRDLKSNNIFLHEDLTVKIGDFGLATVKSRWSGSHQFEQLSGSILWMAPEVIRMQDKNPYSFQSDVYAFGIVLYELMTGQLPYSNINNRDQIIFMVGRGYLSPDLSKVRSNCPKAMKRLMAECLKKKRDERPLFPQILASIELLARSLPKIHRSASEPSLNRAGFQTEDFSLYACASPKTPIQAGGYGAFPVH
Inhibitor of nuclear factor kappa-B kinase subunit alpha (Homo sapiens), sequence (O15111 whole entry): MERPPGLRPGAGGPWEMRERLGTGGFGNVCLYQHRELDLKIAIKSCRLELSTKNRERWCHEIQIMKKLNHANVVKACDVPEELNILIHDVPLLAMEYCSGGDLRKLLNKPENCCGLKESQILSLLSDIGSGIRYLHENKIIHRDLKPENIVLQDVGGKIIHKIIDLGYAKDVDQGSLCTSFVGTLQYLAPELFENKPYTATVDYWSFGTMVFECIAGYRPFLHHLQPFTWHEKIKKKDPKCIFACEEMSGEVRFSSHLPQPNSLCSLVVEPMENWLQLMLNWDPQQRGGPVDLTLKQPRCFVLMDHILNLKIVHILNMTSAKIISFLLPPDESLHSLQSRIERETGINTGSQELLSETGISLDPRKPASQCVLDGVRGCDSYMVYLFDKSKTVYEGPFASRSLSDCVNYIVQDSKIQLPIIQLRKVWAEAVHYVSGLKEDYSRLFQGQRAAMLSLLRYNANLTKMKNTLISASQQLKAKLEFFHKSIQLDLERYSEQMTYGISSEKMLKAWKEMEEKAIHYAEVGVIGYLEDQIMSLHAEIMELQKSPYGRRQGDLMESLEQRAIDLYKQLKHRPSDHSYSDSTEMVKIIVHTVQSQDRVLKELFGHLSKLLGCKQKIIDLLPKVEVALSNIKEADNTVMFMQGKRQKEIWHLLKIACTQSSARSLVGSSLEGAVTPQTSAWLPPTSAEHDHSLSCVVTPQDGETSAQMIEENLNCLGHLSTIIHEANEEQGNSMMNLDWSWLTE
Serine/threonine-protein kinase Nek1 (Homo sapiens), sequence (Q96PY6 whole entry, the tested form may be a part): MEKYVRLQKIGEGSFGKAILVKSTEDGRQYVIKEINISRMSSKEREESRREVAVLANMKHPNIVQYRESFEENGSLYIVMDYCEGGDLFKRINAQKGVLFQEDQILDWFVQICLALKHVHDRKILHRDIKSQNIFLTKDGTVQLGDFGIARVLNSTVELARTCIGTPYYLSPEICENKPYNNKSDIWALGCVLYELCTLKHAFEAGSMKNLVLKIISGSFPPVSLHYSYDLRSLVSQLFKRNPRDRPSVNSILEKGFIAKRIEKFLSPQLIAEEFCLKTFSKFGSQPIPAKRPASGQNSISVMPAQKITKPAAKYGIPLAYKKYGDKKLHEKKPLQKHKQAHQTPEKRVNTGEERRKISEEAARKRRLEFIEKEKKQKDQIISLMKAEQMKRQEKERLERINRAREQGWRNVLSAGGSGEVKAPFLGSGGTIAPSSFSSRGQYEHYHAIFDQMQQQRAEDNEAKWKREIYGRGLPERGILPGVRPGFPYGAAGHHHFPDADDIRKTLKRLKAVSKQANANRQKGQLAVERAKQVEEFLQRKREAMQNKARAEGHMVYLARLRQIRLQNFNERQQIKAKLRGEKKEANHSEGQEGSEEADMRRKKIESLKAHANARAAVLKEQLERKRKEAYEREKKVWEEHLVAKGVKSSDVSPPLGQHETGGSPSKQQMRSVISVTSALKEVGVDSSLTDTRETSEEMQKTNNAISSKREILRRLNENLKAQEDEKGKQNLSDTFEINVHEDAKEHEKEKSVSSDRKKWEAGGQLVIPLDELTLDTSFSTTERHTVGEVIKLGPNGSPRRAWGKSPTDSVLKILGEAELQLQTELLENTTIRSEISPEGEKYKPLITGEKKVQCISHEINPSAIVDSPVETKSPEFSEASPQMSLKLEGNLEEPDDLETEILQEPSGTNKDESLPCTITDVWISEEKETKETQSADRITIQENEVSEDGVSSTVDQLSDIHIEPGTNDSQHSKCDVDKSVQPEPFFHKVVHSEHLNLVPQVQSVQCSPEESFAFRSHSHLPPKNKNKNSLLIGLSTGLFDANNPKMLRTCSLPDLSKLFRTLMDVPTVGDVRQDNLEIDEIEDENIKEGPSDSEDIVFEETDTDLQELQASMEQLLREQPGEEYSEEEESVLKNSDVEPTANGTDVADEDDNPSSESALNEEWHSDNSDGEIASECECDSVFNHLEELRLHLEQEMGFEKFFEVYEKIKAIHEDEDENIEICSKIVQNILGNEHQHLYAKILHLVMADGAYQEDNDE
Tyrosine-protein kinase Yes (Homo sapiens), sequence (P07947 2-543 limits assumed): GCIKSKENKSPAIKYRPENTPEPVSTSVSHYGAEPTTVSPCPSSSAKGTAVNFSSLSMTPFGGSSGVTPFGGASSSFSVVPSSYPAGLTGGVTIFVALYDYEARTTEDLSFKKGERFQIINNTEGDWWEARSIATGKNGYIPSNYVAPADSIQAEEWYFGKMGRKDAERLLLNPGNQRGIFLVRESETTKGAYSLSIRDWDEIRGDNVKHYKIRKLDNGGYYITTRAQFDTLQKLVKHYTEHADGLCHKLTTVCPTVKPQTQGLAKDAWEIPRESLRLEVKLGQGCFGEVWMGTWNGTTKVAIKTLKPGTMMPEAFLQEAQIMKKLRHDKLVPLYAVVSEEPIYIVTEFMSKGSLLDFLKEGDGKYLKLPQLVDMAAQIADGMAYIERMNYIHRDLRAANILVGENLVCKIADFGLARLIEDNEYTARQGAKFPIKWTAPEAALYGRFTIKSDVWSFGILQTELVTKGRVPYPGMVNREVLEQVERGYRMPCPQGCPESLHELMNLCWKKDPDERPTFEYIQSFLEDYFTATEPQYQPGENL
Dual specificity mitogen-activated protein kinase kinase 2 (Homo sapiens), sequence (P36507 whole entry, the tested form may be a part): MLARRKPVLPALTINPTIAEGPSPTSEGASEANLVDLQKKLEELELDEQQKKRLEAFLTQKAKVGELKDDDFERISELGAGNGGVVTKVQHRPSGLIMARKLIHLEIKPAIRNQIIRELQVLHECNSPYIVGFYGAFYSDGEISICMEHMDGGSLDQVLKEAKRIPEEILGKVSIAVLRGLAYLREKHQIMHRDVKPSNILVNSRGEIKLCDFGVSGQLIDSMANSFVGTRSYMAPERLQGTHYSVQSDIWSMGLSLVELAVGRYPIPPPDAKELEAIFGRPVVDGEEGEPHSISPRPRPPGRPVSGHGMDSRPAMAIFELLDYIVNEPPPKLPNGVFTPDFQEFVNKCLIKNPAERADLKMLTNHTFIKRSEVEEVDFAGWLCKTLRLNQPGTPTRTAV

`C=CS(=O)(=O)Nc1ccc(Cc2ccc3ccccc3c2)cc1` showed an inhibition [1] of -3%, an inhibition [2] of 3% and an inhibition [3] of -9%. It also gave an inhibition [4] of -6%, an inhibition [5] of 1% and an inhibition [6] of 7%. The IC50 [7] was 197 nM, the inhibition [8] was -8% and the Activity [9] was “Active”. It also gave an inhibition [10] of 3%, an inhibition [11] of 22% and an inhibition [12] of -3%. The inhibition [13] was 5%, the Activity [14] was “Active” and the inhibition [15] was 6%. The inhibition [16] was 12%, the Activity [17] was “Active” and the inhibition [18] was 2%. It also gave an inhibition [19] of 10%, an inhibition [20] of -2% and an inhibition [21] of 3%. It also gave an inhibition [22] of -2%, an inhibition [23] of 5% and an inhibition [24] of -6%.
